Assay results published in patent US20230293676A1, “Pharmaceutical Composition Comprising Hepatitis B Virus-Derived Polypeptide for Prevention or Treatment of Cancer” (priority 2020, published 2023).
Ends that are not written are not given here.

Legend:
EO771 = assay: cytotoxicity against cancer cells by poly6-treated DC2.4 cells, FACS; assay type: cell-based, murine
Procedure: (§1) FIG. 7 illustrates the results of confirming that the cytotoxicity of various cancer cell lines (MC38, B16F10, and EO771) was reduced when iNOS formation was inhibited by L-NAME (5 mM) treatment while stimulating DC2.4 cells with poly6 for 24 hours (statistical significance was tested by Student's t-test. *, P<0.05; **, P<0.01; and ***, P<0.001).

[1] = tested on: B16F10 murine melanoma cancer cell; assay: as above; assay type: cell-based
Procedure: as §1

[2] = tested on: MC38 murine colon cancer cell; assay: as above; assay type: cell-based
Procedure: as §1

[3] = tested on: MDA231 human breast cancer cell; conditions: concentration-dependent
[4] = tested on: PanO2 murine pancreatic cancer cell; conditions: concentration-dependent
[5] = L-NAME 5 mM while stimulating DC2.4 with poly6 for 24 hours
[6] = DC2.4 treated with 10 μM of poly6 vs LPS (1 μg/ml)

Molecule: COC(=O)[C@@H](N)CCCNC(=N)N[N+](=O)[O-] [L-NAME, reference compound]
- cytotoxicity when iNOS formation was inhibited (EO771; [5]): reduced
- cytotoxicity when iNOS formation was inhibited [1, 5]: reduced
- cytotoxicity when iNOS formation was inhibited [2, 5]: reduced

Molecule: GRLVFQ [poly6, GRLVFQ]
- cytotoxicity by poly6-stimulated DC2.4 cells [3]: cytotoxicity was induced
- cytotoxicity by poly6-stimulated DC2.4 cells (EO771; concentration-dependent): cytotoxicity was induced
- cytotoxicity by poly6-stimulated DC2.4 cells [4]: cytotoxicity was induced
- cytotoxicity against cancer cells compared to LPS [1, 6]: statistically significantly increased
- cytotoxicity by poly6-stimulated DC2.4 cells ([1]; concentration-dependent): cytotoxicity was induced
- cytotoxicity against cancer cells compared to LPS [2, 6]: statistically significantly increased
- cytotoxicity by poly6-stimulated DC2.4 cells ([2]; concentration-dependent): cytotoxicity was induced
